Experimental data taken from ChEMBL document CHEMBL5543105, “Total synthesis and structural modification of the dibenzylbutane lignan LCA as a potent anti-inflammatory agent against LPS-induced acute lung injury” (Eur J Med Chem, 2024).
Calls of active or inactive are those of the source. No cut-off for these calls is given here.

Legend:
RAW264.7 [1] = experiment: Cytotoxicity against mouse RAW264.7 cells upto 20 uM incubated for 24 hrs by CCK-8 assay; assay type: toxicity, cell-based; settings: raw264.7, 24 h
RAW264.7 [2] = experiment: Anti-inflammatory activity against mouse RAW264.7 cells assessed as inhibition of LPS-induced NO production at 20 uM incubated for 24 hrs; assay type: functional, cell-based
Mus musculus [3] = experiment: Anti-inflammatory activity against LPS-induced acute […] injury C57BL/6 mouse model assessed as improvement in alveolar wall thickness at 20 mg/kg, ip administered for 1 hr and measured after 6 hrs by H and E staining based analysis; assay type: functional, organism-based; settings: time 7.0 hrs
Mus musculus [4] = experiment: Anti-inflammatory activity against LPS-induced acute […] injury C57BL/6 mouse model assessed as reduction in alveolar thickness in lung at 20 mg/kg, ip administered for 1 hr and measured after 6 hrs by H and E staining based analysis; assay type: functional, organism-based; settings: time 7.0 hrs
Mus musculus [5] = experiment: Anti-inflammatory activity against LPS-induced acute […] injury C57BL/6 mouse model assessed as reduction in congestion in lung at 20 mg/kg, ip administered for 1 hr and measured after 6 hrs by H and E staining based analysis; assay type: functional, organism-based; settings: time 7.0 hrs
Mus musculus [6] = experiment: Anti-inflammatory activity against LPS-induced acute […] injury C57BL/6 mouse model assessed as reduction in inflammatory cell infiltration at 20 mg/kg, ip administered for 1 hr and measured after 6 hrs by H and E staining based analysis; assay type: functional, organism-based; settings: time 7.0 hrs
Mus musculus [7] = experiment: Anti-inflammatory activity against LPS-induced acute […] injury C57BL/6 mouse model assessed as reduction in bleeding points in lung at 20 mg/kg, ip administered for 1 hr and measured after 6 hrs by H and E staining based analysis; assay type: functional, organism-based; settings: time 7.0 hrs
Mus musculus [8] = experiment: Anti-inflammatory activity against LPS-induced acute […] injury C57BL/6 mouse model assessed as reduction in wet weight to dry weight ratio in lung at 20 mg/kg, ip administered for 1 hr and measured after 6 hrs; assay type: functional, organism-based; settings: time 7.0 hrs
Mus musculus [9] = experiment: Anti-inflammatory activity against LPS-induced acute […] injury C57BL/6 mouse model assessed as reduction in lung edema at 20 mg/kg, ip administered for 1 hr and measured after 6 hrs by H and E staining based analysis; assay type: functional, organism-based; settings: time 7.0 hrs
Mus musculus [10] = experiment: Anti-inflammatory activity against LPS-induced acute […] injury C57BL/6 mouse model assessed as improvement in alveolar structure at 20 mg/kg, ip administered for 1 hr and measured after 6 hrs by H and E staining based analysis; assay type: functional, organism-based; settings: time 7.0 hrs
Mus musculus [11] = experiment: Anti-inflammatory activity against LPS-induced acute […] injury C57BL/6 mouse model assessed as improvement in pulmonary hemorrhage at 20 mg/kg, ip administered for 1 hr and measured after 6 hrs by H and E staining based analysis; assay type: functional, organism-based; settings: time 7.0 hrs
Mus musculus [12] = experiment: Anti-inflammatory activity against LPS-induced acute […] injury C57BL/6 mouse model assessed as improvement in destruction of lung structure at 20 mg/kg, ip administered for 1 hr and measured after 6 hrs by H and E staining based analysis; assay type: functional, organism-based; settings: time 7.0 hrs
Mus musculus [13] = experiment: Anti-inflammatory activity against LPS-induced acute […] injury C57BL/6 mouse model assessed as improvement in lung edema at 20 mg/kg, ip administered for 1 hr and measured after 6 hrs by H and E staining based analysis; assay type: functional, organism-based; settings: time 7.0 hrs

COc1cc(C[C@H](C(=O)N2CCN(c3ccc(C(F)(F)F)cc3)CC2)[C@@H](Cc2cc(OC)c(O)c(OC)c2)C(=O)N2CCN(c3ccc(C(F)(F)F)cc3)CC2)cc(OC)c1O was tested, and the Activity (RAW264.7 [1]) was “Non-Toxic”.

In the case of COc1cc(C[C@H](C(=O)N2CCN(c3ccccc3C)CC2)[C@@H](Cc2cc(OC)c(O)c(OC)c2)C(=O)N2CCN(c3ccccc3C)CC2)cc(OC)c1O, the Activity (RAW264.7 [1]) is reported as “Non-Toxic” and the Activity (RAW264.7 [2]) is reported as “Active”.

For COc1cc(C[C@H](C(=O)N2CCN(c3cccc(Cl)c3)CC2)[C@@H](Cc2cc(OC)c(O)c(OC)c2)C(=O)N2CCN(c3cccc(Cl)c3)CC2)cc(OC)c1O, the Activity (RAW264.7 [1]) was “Non-Toxic” and the Activity (RAW264.7 [2]) was “Active”.

In the case of COc1cc(C[C@H](C(=O)N2CCN(c3cccc(F)c3)CC2)[C@@H](Cc2cc(OC)c(O)c(OC)c2)C(=O)N2CCN(c3cccc(F)c3)CC2)cc(OC)c1O, the Activity (RAW264.7 [1]) is reported as “Non-Toxic”.

With COc1cc(C[C@H](C(=O)N2CCOCC2)[C@@H](Cc2cc(OC)c(O)c(OC)c2)C(=O)N2CCOCC2)cc(OC)c1O the Activity (RAW264.7 [1]) was “Non-Toxic” and the Activity (RAW264.7 [2]) was “Active”.

For COc1cc(C[C@H](C(=O)N2CCN(c3ccc(C)cc3)CC2)[C@@H](Cc2cc(OC)c(O)c(OC)c2)C(=O)N2CCN(c3ccc(C)cc3)CC2)cc(OC)c1O, the Activity (RAW264.7 [1]) was “Non-Toxic”.

In the case of CNC(=O)[C@@H](Cc1cc(OC)c(O)c(OC)c1)[C@@H](Cc1cc(OC)c(O)c(OC)c1)C(=O)NC, the Activity (RAW264.7 [1]) is reported as “Non-Toxic”.

For COc1cc(C[C@H](C(=O)N2CCN(c3ccccc3C(F)(F)F)CC2)[C@@H](Cc2cc(OC)c(O)c(OC)c2)C(=O)N2CCN(c3ccccc3C(F)(F)F)CC2)cc(OC)c1O, the Activity (RAW264.7 [1]) was “Non-Toxic” and the Activity (RAW264.7 [2]) was “Active”.

For COc1cc(C[C@H](C(=O)N2CCN(c3cccc(Cl)c3Cl)CC2)[C@@H](Cc2cc(OC)c(O)c(OC)c2)C(=O)N2CCN(c3cccc(Cl)c3Cl)CC2)cc(OC)c1O, the Activity (RAW264.7 [1]) was “Non-Toxic”.

With COc1cc(C[C@H](C(=O)NC2CCCCC2)[C@@H](Cc2cc(OC)c(O)c(OC)c2)C(=O)NC2CCCCC2)cc(OC)c1O the Activity (RAW264.7 [1]) was “Non-Toxic”.

With COc1cc(C[C@H](C(=O)NC2CC(F)(F)C2)[C@@H](Cc2cc(OC)c(O)c(OC)c2)C(=O)NC2CC(F)(F)C2)cc(OC)c1O the Activity (RAW264.7 [1]) was “Non-Toxic”.

COc1ccccc1N1CCN(C(=O)[C@@H](Cc2cc(OC)c(O)c(OC)c2)[C@@H](Cc2cc(OC)c(O)c(OC)c2)C(=O)N2CCN(c3ccccc3OC)CC2)CC1 was tested, and the Activity (RAW264.7 [1]) was “Non-Toxic”.

In the case of COc1cc(C[C@H](C(=O)N2CCN(c3cccc(C)c3)CC2)[C@@H](Cc2cc(OC)c(O)c(OC)c2)C(=O)N2CCN(c3cccc(C)c3)CC2)cc(OC)c1O, the Activity (RAW264.7 [1]) is reported as “Non-Toxic”.

With COc1cc(C[C@H](C(=O)NCC2CCC2)[C@@H](Cc2cc(OC)c(O)c(OC)c2)C(=O)NCC2CCC2)cc(OC)c1O the Activity (RAW264.7 [1]) was “Non-Toxic”.

CCCCCCNC(=O)[C@@H](Cc1cc(OC)c(O)c(OC)c1)[C@@H](Cc1cc(OC)c(O)c(OC)c1)C(=O)NCCCCCC was tested, and the Activity (RAW264.7 [1]) was “Non-Toxic”.

With COc1cc(C[C@H](C(=O)N2CCCCC2)[C@@H](Cc2cc(OC)c(O)c(OC)c2)C(=O)N2CCCCC2)cc(OC)c1O the Activity (RAW264.7 [1]) was “Non-Toxic”.

COc1cc(C[C@H](C(=O)NC2CC(OC)C2)[C@@H](Cc2cc(OC)c(O)c(OC)c2)C(=O)NC2CC(OC)C2)cc(OC)c1O (some centres not stated) was tested, and the Activity (RAW264.7 [1]) was “Non-Toxic”.

For COc1cc(C[C@H](C(=O)N2CCN(c3cccc(C(F)(F)F)c3)CC2)[C@@H](Cc2cc(OC)c(O)c(OC)c2)C(=O)N2CCN(c3cccc(C(F)(F)F)c3)CC2)cc(OC)c1O, the Activity (RAW264.7 [1]) was “Non-Toxic” and the Activity (RAW264.7 [2]) was “Active”.

In the case of COc1cc(C[C@H](C(=O)NC2CCC(OC)CC2)[C@@H](Cc2cc(OC)c(O)c(OC)c2)C(=O)NC2CCC(OC)CC2)cc(OC)c1O (some centres not stated), the Activity (RAW264.7 [1]) is reported as “Non-Toxic”.

COc1cc(C[C@H](C(=O)N2CCN(c3ccc(F)cc3F)CC2)[C@@H](Cc2cc(OC)c(O)c(OC)c2)C(=O)N2CCN(c3ccc(F)cc3F)CC2)cc(OC)c1O was tested, and the Activity (RAW264.7 [1]) was “Non-Toxic” and the Activity (RAW264.7 [2]) was “Active”.

With COc1cc(C[C@H](C(=O)N2CCN(c3ccccc3Br)CC2)[C@@H](Cc2cc(OC)c(O)c(OC)c2)C(=O)N2CCN(c3ccccc3Br)CC2)cc(OC)c1O the Activity (RAW264.7 [1]) was “Non-Toxic”.

For COc1cc(C[C@H](C(=O)N2CCN(c3ccc(Cl)cc3)CC2)[C@@H](Cc2cc(OC)c(O)c(OC)c2)C(=O)N2CCN(c3ccc(Cl)cc3)CC2)cc(OC)c1O, the Activity (RAW264.7 [1]) was “Non-Toxic” and the Activity (RAW264.7 [2]) was “Active”.

With COc1cc(/C=C/C(=O)OC[C@H](Cc2cc(OC)c(O)c(OC)c2)[C@@H](COC(=O)/C=C/c2ccc(O)c(OC)c2)Cc2cc(OC)c(O)c(OC)c2)ccc1O the Activity (Mus musculus [3]) was “Active”, the Activity (Mus musculus [4]) was “Active” and the Activity (Mus musculus [5]) was “Active”. The Activity (Mus musculus [6]) was “Active”, the Activity (Mus musculus [7]) was “Active” and the Activity (Mus musculus [8]) was “Active”. For the same compound, the Activity (Mus musculus [9]) was “Active”, the Activity (Mus musculus [10]) was “Active” and the Activity (Mus musculus [11]) was “Active”. For the same compound, the Activity (Mus musculus [12]) was “Active” and the Activity (Mus musculus [13]) was “Active”.

With COc1cc(C[C@H](C(=O)NCC2CCCCC2)[C@@H](Cc2cc(OC)c(O)c(OC)c2)C(=O)NCC2CCCCC2)cc(OC)c1O the Activity (RAW264.7 [1]) was “Non-Toxic”.

In the case of COc1cc(C[C@H](C(=O)NC2CCC2)[C@@H](Cc2cc(OC)c(O)c(OC)c2)C(=O)NC2CCC2)cc(OC)c1O, the Activity (RAW264.7 [1]) is reported as “Non-Toxic”.

COc1cccc(N2CCN(C(=O)[C@@H](Cc3cc(OC)c(O)c(OC)c3)[C@@H](Cc3cc(OC)c(O)c(OC)c3)C(=O)N3CCN(c4cccc(OC)c4)CC3)CC2)c1 was tested, and the Activity (RAW264.7 [1]) was “Non-Toxic”.

In the case of COc1cc(C[C@H](C(=O)NC2CC2)[C@@H](Cc2cc(OC)c(O)c(OC)c2)C(=O)NC2CC2)cc(OC)c1O, the Activity (RAW264.7 [1]) is reported as “Non-Toxic”.

COc1cc(C[C@H](C(=O)N2CCN(c3ccccc3Cl)CC2)[C@@H](Cc2cc(OC)c(O)c(OC)c2)C(=O)N2CCN(c3ccccc3Cl)CC2)cc(OC)c1O was tested, and the Activity (RAW264.7 [1]) was “Non-Toxic” and the Activity (RAW264.7 [2]) was “Active”.

With COc1cc(C[C@H](C(=O)N2CCN(c3ccccc3F)CC2)[C@@H](Cc2cc(OC)c(O)c(OC)c2)C(=O)N2CCN(c3ccccc3F)CC2)cc(OC)c1O the Activity (RAW264.7 [1]) was “Non-Toxic”.

With COc1cc(C[C@H](C(=O)N2CCN(c3ccccc3)CC2)[C@@H](Cc2cc(OC)c(O)c(OC)c2)C(=O)N2CCN(c3ccccc3)CC2)cc(OC)c1O the Activity (RAW264.7 [1]) was “Non-Toxic”.

COc1ccc(N2CCN(C(=O)[C@@H](Cc3cc(OC)c(O)c(OC)c3)[C@@H](Cc3cc(OC)c(O)c(OC)c3)C(=O)N3CCN(c4ccc(OC)cc4)CC3)CC2)cc1 was tested, and the Activity (RAW264.7 [1]) was “Non-Toxic”.

In the case of COc1cc(C[C@H](C(=O)N2CCN(C)CC2)[C@@H](Cc2cc(OC)c(O)c(OC)c2)C(=O)N2CCN(C)CC2)cc(OC)c1O, the Activity (RAW264.7 [1]) is reported as “Non-Toxic” and the Activity (RAW264.7 [2]) is reported as “Active”.

For COc1cc(C[C@H](C(=O)N2CCN(c3ccc(F)cc3)CC2)[C@@H](Cc2cc(OC)c(O)c(OC)c2)C(=O)N2CCN(c3ccc(F)cc3)CC2)cc(OC)c1O, the Activity (RAW264.7 [1]) was “Non-Toxic”.
